This passage reports activity results from patent US8877747B2, “Indenone derivative and pharmaceutical composition comprising same” (Korea Research Institute of Chemical Technology, priority 2009, dated 2014).

Molecules are shown by their SMILES. Counter-ions that a name gives are not always drawn.

The assay relates to MC3T3-E1 cells. Description: ALP activity, differentiation of osteoblast cells. In kind it is cell-based. The following applies: Mus musculus, MC3T3-E1, 144 h; MC3T3E1 cells treated with 10 μM compound and OF; relates activity to OF-only group (100%); higher = more efficacious. The method, then:
To examine the effects of the inventive indenone derivatives on the differentiation and activation of osteoblast cells, the activity and expression of alkaline phosphatase (ALP), a marker for the differentiation of osteoblast cells, and the bone nodule formation using a mouse derived osteoblast-like cells, MC3T3-E1 (ATCC, Japan) or a primary mouse calvaria derived preosteoblastic cells were observed.
MC3T3-E 1 cells were seeded in a medium containing osteogenic factors (OF) such as ascorbic acids and β-glycerophosphates (b-GP), and each compound of Examples was added thereto at a concentration of 0.1, 1 and 10 μM. The cells were incubated for 6 days (MC3T3-E1 cells) or 7 days (primary mouse calvaria derived preosteoblastic cells) in a 37° C. CO2 incubator. Then, the culture medium was replaced with a fresh medium together with the test compound every two or three days. On the last day, the medium was centrifuged to remove the supernatant, and the cells were washed with PBS. The washed cells were subjected to a 3-cycle freege-thaw treatment using a −70° C. deep freezer to allow enzymes elute in a lysis buffer. The lysed protein was quantified, followed by measurement of ALP activity using 4-nitrophenylphosphate.
Further, a group treated only with DMSO or OF was tested for ALP activities for comparison.

`O=C1C(c2cncnc2)=C(c2ccc(C(F)(F)F)cc2)c2ccc(OCCN3CCOCC3)cc21` [Example 35, 6-(2-morpholinoethoxy)-3-(4-(trifluoromethyl)phenyl)-2-(pyrimidin-5-yl)-1H-inden-1-one]: the activity at 10 µM is 79%.
Under `O=C1C(c2cccnc2)=C(c2cc(F)cc(F)c2)c2ccc(OCCN3CCOCC3)cc21` [Example 36, 6-(2-morpholinoethoxy)-3-(3,5-difluorophenyl)-2-(pyridin-3-yl)-1H-inden-1-one hydrochloride salt] stands 224%; under `O=C1C(c2ccc(C(F)(F)F)cc2)=C(c2cc(F)cc(F)c2)c2ccc(OCCN3CCOCC3)cc21` [Example 37, 6-(2-morpholinoethoxy)-2-(4-(trifluoromethyl)phenyl)-3-(3,5-difluorophenyl)-1H-inden-1-one], 80%.
The result for `O=C1C(c2ccc(F)c(F)c2)=C(c2cc(F)cc(F)c2)c2ccc(OCCN3CCOCC3)cc21` [Example 38, 6-(2-morpholinoethoxy)-2-(3,4-difluorophenyl)-3-(3,5-difluorophenyl)-1H-inden-1-one] reads 77%; that for `O=C1C(c2cncnc2)=C(c2cc(F)cc(F)c2)c2ccc(OCCN3CCOCC3)cc21` [Example 39, 6-(2-morpholinoethoxy)-3-(3,5-difluorophenyl)-2-(pyrimidin-5-yl)-1H-inden-1-one], 92%; that for `C[n+]1cccc(C2=C(c3ccccc3)c3ccc(OCC[N+]4(C)CCOCC4)cc3C2=O)c1` [Example 40, 4-methyl-4-(2-{[2-(1-methylpyridin-1-ium-3-yl)-1-oxo-3-phenyl-1H-inden-6-yl]oxy}ethyl)morpholin-4-ium diiodide], 291%.
The result for `C[n+]1cccc(C2=C(c3ccccc3)c3ccc(OCCN4CCOCC4)cc3C2=O)c1` [Example 41, 1-methyl-3-{6-[2-(morpholin-4-yl)ethoxy]-1-oxo-3-phenyl-1H-inden-2-yl}pyridin-1-ium iodide] reads 329%; that for `O=C1C(c2ccc[n+]([O-])c2)=C(c2ccccc2)c2ccc(OCC[N+]3([O-])CCOCC3)cc21` [Example 43, 4-oxido-4-(2-{[2-(1-oxidopyridin-1-ium-3-yl)-1-oxo-3-phenyl-1H-inden-6-yl]oxy}ethyl)morpholin-4-ium], 125%.
With `CC(C)(C)OC(=O)N1CCN(CCOc2ccc3c(c2)C(=O)C(c2cccnc2)=C3c2ccccc2)CC1` [Example 44, tert-butyl 4-(2-(1-oxo-3-phenyl-2-(pyridin-3-yl)-1H-inden-6-yloxy)ethyl)piperazine-1-carboxylate], the activity at 10 µM was determined as 710%.
For the compound `CS(=O)(=O)N1CCN(CCOc2ccc3c(c2)C(=O)C(c2cccnc2)=C3c2ccccc2)CC1` [Example 45, 6-[2-(4-(methylsulfonyl)piperazin-1-yl)ethoxy]-3-phenyl-2-(pyridin-3-yl)-1H-inden-1-one hydrochloride salt], the activity at 10 µM was 192%.
In the case of `O=C1C(c2cccnc2)=C(c2ccccc2)c2ccc(OCCN3CCNCC3)cc21` [Example 46, 6-(2-(piperazin-1-yl)ethoxy)-3-phenyl-2-(pyridin-3-yl)-1H-inden-1-one], the activity at 10 µM is 107%.
For `CS(=O)(=O)N1CCN(CCOc2ccc3c(c2)C(=O)C(c2ccc(F)c(F)c2)=C3c2ccc(C(F)(F)F)cc2)CC1` [Example 48, 2-(3,4-difluorophenyl)-6-(2-(4-(methylsulfonyl)piperazin-1-yl)ethoxy)-3-(4-(trifluoromethyl)phenyl)-1H-inden-1-one], the activity at 10 µM was found to be 67%.
Turning to `CS(=O)(=O)N1CCN(CCOc2ccc3c(c2)C(=O)C(c2cncnc2)=C3c2ccc(C(F)(F)F)cc2)CC1` [Example 49, 6-(2-(4-(methylsulfonyl)piperazin-1-yl)ethoxy)-2-(pyrimidin-5-yl)-3-(4-(trifluoromethyl)phenyl)-1H-inden-1-one], the activity at 10 µM was found to be 37%.
Regarding `CS(=O)(=O)N1CCN(CCOc2ccc3c(c2)C(=O)C(c2ccc(F)c(F)c2)=C3c2cc(F)cc(F)c2)CC1` [Example 51, 2-(3,4-difluorophenyl)-3-(3,5-difluorophenyl)-6-(2-(4-(methylsulfonyl)piperazin-1-yl)ethoxy)-1H-inden-1-one hydrochloride salt], the activity at 10 µM worked out at 33%.
Regarding `CS(=O)(=O)N1CCN(CCOc2ccc3c(c2)C(=O)C(c2cncnc2)=C3c2cc(F)cc(F)c2)CC1` [Example 52, 3-(3,5-difluorophenyl)-6-(2-(4-(methylsulfonyl)piperazin-1-yl)ethoxy)-2-(pyrimidin-5-yl)-1H-inden-1-one hydrochloride salt], the activity at 10 µM worked out at 50%.
With `CS(=O)(=O)N1CCN(CCOc2ccc3c(c2)C(=O)C(c2ccc(F)c(F)c2)=C3c2ccc(Cl)cc2)CC1` [Example 53, 3-(4-chlorophenyl)-2-(3,4-difluorophenyl)-6-(2-(4-(methylsulfonyl)piperazin-1-yl)ethoxy)-1H-inden-1-one hydrochloride salt], the activity at 10 µM is 27%.
Take `CS(=O)(=O)N1CCN(CCOc2ccc3c(c2)C(=O)C(c2cncnc2)=C3c2ccc(Cl)cc2)CC1` [Example 54, 3-(4-chlorophenyl)-6-(2-(4-(methylsulfonyl)piperazin-1-yl)ethoxy)-2-(pyrimidin-5-yl)-1H-inden-1-one hydrochloride salt]: the activity at 10 µM was found to be 62%.
For `CC(C)(C)OC(=O)N1CCN(CCCOc2ccc3c(c2)C(=O)C(c2cccnc2)=C3c2ccccc2)CC1` [Example 55, tert-Butyl 4-(3-(1-oxo-3-phenyl-2-(pyridin-3-yl)-1H-inden-6-yloxy)propyl)piperazine-1-carboxylate], the activity at 10 µM was determined as 129%.
Regarding `CN(C)CCOc1ccc2c(c1)C(=O)C(c1cccnc1)=C2c1ccccc1` [Example 56, 6-(2-(dimethylamino)ethoxy)-3-phenyl-2-(pyridin-3-yl)-1H-inden-1-one hydrochloride salt], the activity at 10 µM worked out at 71%.
`CN(C)CCCOc1ccc2c(c1)C(=O)C(c1cccnc1)=C2c1ccccc1` [Example 57, 6-(3-(dimethylamino)propoxy)-3-phenyl-2-(pyridin-3-yl)-1H-inden-1-one hydrochloride salt]: the activity at 10 µM is 62%.
For the compound `CC(C)(C)OC(=O)N1CCN(CCOc2ccc3c(c2)C(=O)C(c2cccnc2)=C3c2cc(F)cc(F)c2)CC1` [Example 58, tert-Butyl 4-(2-(3-(3,5-difluorophenyl)-1-oxo-2-(pyridin-3-yl)-1H-inden-6-yloxy)ethyl)piperazine-1-carboxylate], the activity at 10 µM was determined as 19%.
In the case of `CS(=O)(=O)N1CCN(CCOc2ccc3c(c2)C(=O)C(c2cccnc2)=C3c2cc(F)cc(F)c2)CC1` [Example 59, 3-(3,5-difluorophenyl)-6-(2-(4-(methylsulfonyl)piperazin-1-yl)ethoxy)-2-(pyridin-3-yl)-1H-inden-1-one hydrochloride salt], the activity at 10 µM was 254%.
The result for `CN(C)CCCOc1ccc2c(c1)C(=O)C(c1cccnc1)=C2c1cc(F)cc(F)c1` [Example 60, 3-(3,5-difluorophenyl)-6-(3-(dimethylamino)propoxy)-2-(pyridin-3-yl)-1H-inden-1-one hydrochloride salt] reads 19%; that for `O=C1C(c2cccnc2)=C(c2cc(F)cc(F)c2)c2ccc(OCCc3ccccc3)cc21` [Example 61, 3-(3,5-difluorophenyl)-6-phenethoxy-2-(pyridin-3-yl)-1H-inden-1-one hydrochloride salt], 113%; that for `O=C1C(c2cccnc2)=C(c2cc(F)cc(F)c2)c2ccc(OCCc3ccccn3)cc21` [Example 62, 3-(3,5-difluorophenyl)-6-(2-(pyridin-2-yl)ethoxy)-2-(pyridin-3-yl)-1H-inden-1-one hydrochloride salt], 90%.
As for `O=C1C(c2cccnc2)=C(c2cc(F)cc(F)c2)c2ccc(OCCN3CCCCC3)cc21` [Example 63, 3-(3,5-difluorophenyl)-6-(2-(piperidin-1-yl)ethoxy)-2-(pyridin-3-yl)-1H-inden-1-one hydrochloride salt], the activity at 10 µM was found to be 53%.
In the case of `CC(C)(C)OC(=O)N1CCN(CCCOc2ccc3c(c2)C(=O)C(c2cccnc2)=C3c2cc(F)cc(F)c2)CC1` [Example 64, tert-butyl 4-(3-(3-(3,5-difluorophenyl)-1-oxo-2-(pyridin-3-yl)-1H-inden-6-yloxy)propyl)piperazine-1-carboxylate], the activity at 10 µM amounted to 34%.
Under `CN1CCN(CCCOc2ccc3c(c2)C(=O)C(c2cccnc2)=C3c2cc(F)cc(F)c2)CC1` [Example 65, 3-(3,5-difluorophenyl)-6-(3-(4-methylpiperazin-1-yl)propoxy)-2-(pyridin-3-yl)-1H-inden-1-one hydrochloride salt] stands 19%; under `O=C1C(c2cccnc2)=C(c2cc(F)cc(F)c2)c2ccc(OCCCN3CCNCC3)cc21` [Example 66, 3-(3,5-difluorophenyl)-6-(3-(piperazin-1-yl)propoxy)-2-(pyridin-3-yl)-1H-inden-1-one hydrochloride salt], 70%.
Under `CC(=O)N1CCN(CCCOc2ccc3c(c2)C(=O)C(c2cccnc2)=C3c2cc(F)cc(F)c2)CC1` [Example 67, 6-(3-(4-acetylpiperazin-1-yl)propoxy)-3-(3,5-difluorophenyl)-2-(pyridin-3-yl)-1H-inden-1-one hydrochloride salt] stands 116%.
